Results reported in PMC11338949, “E41K mutation activates Bruton’s tyrosine kinase by stabilizing an inositol hexakisphosphate-dependent invisible dimer” (The Journal of Biological Chemistry, 2024).
Like-named read-outs stand apart in the source and are kept apart here.

Key:
[1] = molecular target: T1, PH-TH^E41K (Bos taurus, UniProt Q3ZC95, E41K); experiment: Size-exclusion chromatography of PH-TH domain with ligand
T1 construct: amino acid residue number 4–170; His-SUMO (N, cleaved yes); made in house; host or cells: E. coli BL21-DE3
T1 sequence (Q3ZC95 4-170 E41K): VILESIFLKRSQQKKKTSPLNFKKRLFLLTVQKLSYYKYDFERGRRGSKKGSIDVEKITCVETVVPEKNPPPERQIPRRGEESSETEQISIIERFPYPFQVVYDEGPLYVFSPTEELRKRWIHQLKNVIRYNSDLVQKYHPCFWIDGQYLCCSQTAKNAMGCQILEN
Protocol: Size-exclusion chromatography of various constructs of the PH-TH domain was performed using the Superdex-200 10/300 Gl column. For the apo PH-TH domain, the column was equilibrated with running buffer (25 mM Tris-Cl, 100 mM NaCl, 1 mM DTT, pH 7.2), and 500 μl of 75 μM protein was loaded into the column, at a flow rate of 0.3 ml/min and at 8 °C. The elution profile was recorded, and the retention time of the protein was calculated. For the ligand-bound samples, the protein was mixed with ligand at a protein-to-ligand ratio of 1:4, and incubated at 4 °C for 15 min before loading into the size-exclusion column. Before loading the sample, the column was pre-equilibrated with a running buffer containing the ligand.

[2] = molecular target: T2, PH-TH^E41K (isolated PH-TH domain of BTK, E41K mutant) (Bos taurus, UniProt Q3ZC95, E41K); experiment: Isothermal titration calorimetry, ligand binding to isolated PH-TH domain E41K mutant; details: ITC
T2 construct: amino acid residue number 4–170; His-SUMO (N, cleaved yes); made in house; host or cells: E. coli BL21-DE3
T2 sequence (Q3ZC95 4-170 E41K): as above
Protocol: The isothermal titration calorimetry experiments were performed using MicroCal ITC (GE Healthcare) and MicroCal PEAQ-ITC (Malvern). The PH-TH domain was buffer exchanged to 20 mM HEPES, 150 mM NaCl, pH 7.5. During the titration, 25 μM protein in the cell was titrated with a ligand at the protein-to-ligand ratio of 1: 5.5. All ITC titrations were performed at 20 °C. The initial injection of 0.5 μl was excluded from the data analysis. During the titration, 3 μl of ligand was injected in 13 steps, and each injection step was separated by 180 s. The protein solution was stirred at 300 rpm during the titration.

[3] = molecular target: T3, BTK PH-TH E41K/R28H (Bos taurus, UniProt Q3ZC95, E41K/R28H); experiment: Isothermal titration calorimetry, IP6 binding to PH-TH E41K/R28H; details: ITC
T3 construct: amino acid residue number 4–170; His-SUMO (N, cleaved yes); made in house; host or cells: E. coli BL21-DE3
T3 sequence (Q3ZC95 4-170 R28H/E41K): as the sequence (Q3ZC95 4-170 E41K) above, with R25H counted along it
Protocol: (§1) The isothermal titration calorimetry experiments were performed using MicroCal ITC (GE Healthcare) and MicroCal PEAQ-ITC (Malvern). The PH-TH domain was buffer exchanged to 20 mM HEPES, 150 mM NaCl, pH 7.5. During the titration, 25 μM protein in the cell was titrated with a ligand at the protein-to-ligand ratio of 1: 5.5. All ITC titrations were performed at 20 °C. The initial injection of 0.5 μl was excluded from the data analysis.

[4] = molecular target: BTK^E41K/R28H (Mus musculus, UniProt P35991, E41K/R28H); experiment: Immunofluorescence of Y551 phosphorylation in transiently transfected CHO cells; details: 500 μM IP6 for 1 h
Chain of BTK^E41K/R28H (P35991 whole entry R28H/E41K): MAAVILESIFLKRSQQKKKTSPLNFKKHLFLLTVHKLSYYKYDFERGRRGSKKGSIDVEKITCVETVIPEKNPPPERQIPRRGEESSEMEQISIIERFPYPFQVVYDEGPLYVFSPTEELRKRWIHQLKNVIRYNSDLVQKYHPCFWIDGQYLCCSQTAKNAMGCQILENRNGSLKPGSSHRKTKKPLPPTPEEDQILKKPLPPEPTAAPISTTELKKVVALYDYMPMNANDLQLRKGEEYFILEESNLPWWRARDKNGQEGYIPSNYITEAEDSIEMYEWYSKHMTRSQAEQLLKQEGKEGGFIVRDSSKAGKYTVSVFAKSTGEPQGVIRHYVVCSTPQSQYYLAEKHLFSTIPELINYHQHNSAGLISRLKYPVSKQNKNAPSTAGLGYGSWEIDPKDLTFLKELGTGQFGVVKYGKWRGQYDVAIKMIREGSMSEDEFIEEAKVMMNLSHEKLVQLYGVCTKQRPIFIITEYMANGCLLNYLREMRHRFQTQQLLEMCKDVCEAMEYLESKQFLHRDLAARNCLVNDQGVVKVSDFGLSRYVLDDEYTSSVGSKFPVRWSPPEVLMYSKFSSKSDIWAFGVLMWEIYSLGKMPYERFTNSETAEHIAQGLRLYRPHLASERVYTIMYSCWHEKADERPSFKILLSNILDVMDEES
Protocol: (§3) The IP6-mediated activation of BTK was determined by immunofluorescence and immunoblot in Chinese Hamster Ovary (CHO) cell line transiently transfected with BTK-mCherry cloned in pCDNA. […] Before activation, transfected cells were serum-starved for 6 h in opti-MEM, followed by incubation with 500 μM IP6 for 1 h in opti-MEM. For Immunoblot, cells were washed with ice-cold PBS and then incubated in RIPA buffer [10 mM Tris-Cl (pH 8.0), 140 mM NaCl, 1 mM EDTA, 0.1% SDS, and 1% Triton X-100] containing protease and phosphatase inhibitors (2 mM Benzamidine, 1 mM PMSF and 1 mM Sodium orthovanadate) for 10 min. […]
(§4) All images were acquired with the Leica SP8 confocal platform using an oil immersion HC PL APO CS2 63 × objective (NA 1.4) at 3.0X digital zoom. […] The level of BTK on the membrane or cytoplasm was determined from the intensity of mCherry measured at λex = 552 nm and λem = 576 to 651 nm, respectively. The Y551 phosphorylation was determined from the intensity of FITC tagged to the secondary antibody and measured at λex = 488 nm and λem = 505 to 531 nm. […] The intensity of mCherry or FITC at the membrane was determined by subtracting the respective intensities of ROI2 from ROI1. Whereas cytoplasmic intensity of mCherry or FITC was determined by subtracting the respective intensities of ROI3 from ROI2. […]

[5] = molecular target: T1, PH-TH^E41K; experiment: Thermal denaturation by circular dichroism spectroscopy; details: at the Tm of the apo state, equimolar ligand
Protocol: The melting temperature of the PH-TH domain was determined from the Circular Dichroism (CD) spectrum recorded at increasing temperatures (20° to 76 °C). For each sample, the CD spectra from 300 to 190 nm were recorded using a Jasco-J1500 spectropolarimeter with a temperature increment of 4 °C. CD spectra were recorded with 5 μM protein in 20 mM Sodium phosphate buffer pH 7.4 and in the absence or in the presence of an equimolar ligand. The measured ellipticity data was converted into molar ellipticity ([39]). The ΔGUnfolding was calculated considering the simplest two-step unfolding model, where a protein exists in a folded (F) and an unfolded (U) state as described previously ([40], [41]). The fraction unfolded [U] protein at a given temperature is:(1) [U]=(θT−θF)/(θU−θF) Where, θF and θU are the molar ellipticity of the fully folded and unfolded state at 218 nm, θT is the molar ellipticity at a given temperature. Considering that at a given temperature, the sum of the unfolded and folded [F] fraction of the protein is 1, the equilibrium constant, KUnfolding is:(2) KUnfolding=[U]/1−[U] […] The ΔΔGunfolding was calculated from the difference between the ΔG of the IP6 bound ΔGholo and ΔGapo state, measured at the Tm of the corresponding apo PH-TH construct.

[6] = molecular target: T4, BTK^E41K (Mus musculus, UniProt P35991, E41K); experiment: TIRF microscopy of membrane-bound BTK-mCherry in live CHO cells after IP6 stimulation; assay type: cell-based, Chinese Hamster
T4 construct: expressed in transfected cells; host or cells: CHO cells, transient transfection with pCDNA BTK-mCherry
T4 sequence (P35991 whole entry E41K): as the sequence (P35991 whole entry R28H/E41K) above, with H28R counted along it
Protocol: For Total internal reflection fluorescence (TIRF) microscopy, CHO cells were seeded in a glass bottom dish and transfected with 500 ng DNA. After 16 h of post-transfection, cells were serum starved by incubating in Opti-MEM serum-free media for 6 h. The images of lived CHO cells were recorded for 10 min before and after IP6 treatment. The TIRF images were acquired on a Nikon Eclipse Ti2 inverted microscope equipped with a Nikon 100 × 1.49 numerical aperture oil-immersion TIRF objective, a TIRF illuminator, a Perfect Focus system (PFS), and a motorized stage. The critical angle and the refractive index were set to 63° and 1.515, respectively ([53]). The samples were excited at 561 nm using an LU-N4 laser unit (Nikon, Tokyo, Japan) with solid-state lasers. Image acquisition was done using the Nikon NIS-Elements software. Live cell images were acquired at 1-min intervals for 10 min using an EMCCD camera, with an exposure time of 200 ms. The images were processed and analyzed using Fiji. Out-of-focus fluorescence in the acquired images is removed by deconvolution ([54]). […] The fluorescence intensity of each frame was quantified using “create spectrum jru V1” routine of Fiji. The half-life of fluorescence intensity at the plasma membrane was determined by fitting the fluorescence decay at indicated time points to a first-order kinetic equation using GraphPad Prism version 9.5.1.

[7] = molecular target: BTK wild-type (Mus musculus, UniProt P35991); experiment: Immunofluorescence of Y551 phosphorylation in transiently transfected CHO cells; details: 500 μM IP6 for 1 h
Chain of BTK wild-type (P35991 whole entry): as the sequence (P35991 whole entry R28H/E41K) above, with H28R, K41E counted along it
Protocol: as §3, §4

[8] = molecular target: T5, BTK PH-TH E41K/R49S (Bos taurus, UniProt Q3ZC95, E41K/R49S); experiment: Isothermal titration calorimetry, IP6 binding to PH-TH E41K/R49S; details: ITC
T5 construct: amino acid residue number 4–170; His-SUMO (N, cleaved yes); made in house; host or cells: E. coli BL21-DE3
T5 sequence (Q3ZC95 4-170 E41K/R49S): as the sequence (Q3ZC95 4-170 E41K) above, with R46S counted along it
Protocol: as §1

[9] = molecular target: T6, wild-type PH-TH domain of BTK (Bos taurus, UniProt Q3ZC95); experiment: Dynamic light scattering of PH-TH domain with IP6; details: IP6 bound PH-TH domain
T6 construct: amino acid residue number 4–170; His-SUMO (N, cleaved yes); made in house; host or cells: E. coli BL21-DE3
T6 sequence (Q3ZC95 4-170): as the sequence (Q3ZC95 4-170 E41K) above, with K38E counted along it
Protocol: (§2) The Dynamic Light Scattering experiments were conducted using Malvern Zetasizer DLS Detectors using 1.5 ml plastic cuvettes. The samples were prepared in a buffer containing 25 mM Tris-Cl, 100 mM NaCl, 1 mM DTT, and pH 7.2. The experiment included three measurements of ten runs each. The theoretical calculations of the hydrodynamic radius of the proteins were performed using Hydropro ([51]).

[10] = molecular target: T1, PH-TH^E41K; experiment: Dynamic light scattering of PH-TH domain with IP6; details: in the presence of IP6
Protocol: as §2

In the case of O=P(O)(O)O[C@@H]1[C@H](O)[C@H](O)[C@@H](OP(=O)(O)O)[C@H](OP(=O)(O)O)[C@H]1O [IP3], the “dimerization of PH-TH^E41K” value ([1]; size-exclusion chromatography, in the presence of ligand) is reported as “does not dimerize” and the “binding to PH-TH^E41K” value ([2]; 25 μM protein titrated with 137 μM ligand) is reported as “does not bind”.
In the case of O=P(O)(O)OC1C(OP(=O)(O)O)C(OP(=O)(O)O)C(OP(=O)(O)O)C(OP(=O)(O)O)C1OP(=O)(O)O (stereo not shown) [IP6, inositol hexakisphosphate], the “∆H1” value ([3]; Table S1) is reported as -6.535 ± 4.217 kJ/mol, the Kd ([3]; Table S1, read-out: Kd1) is reported as 2.42 ± 0.151 µM and the Kd ([3]; one-site fit, weak binding to peripheral lipid binding site, read-out: Kd) is reported as 2.4 ± 0.15 µM. For the same molecule, the “activation (Y551 phosphorylation) of BTK” value [4] was “does not activate”, the “ΔΔGunfolding (ΔGholo – ΔGapo)” value [5] was 6.23 ± 3.31 kJ/mol and the “critical concentration at which BTK^E41K comes out of the membrane” value [6] was 0.5 mM. The “activation (Y551 phosphorylation) of cytosolic fraction of BTK” value [7] was “activates”, the “∆H1” value ([8]; Table S1) was -17.41 ± 2.3 kJ/mol and the Kd ([8]; one-site fit, binding to canonical lipid binding site, read-out: Kd (Kd1)) was 0.622 ± 0.077 µM. The hydrodynamic radius [9] was 2.18 ± 0.10 nm, the hydrodynamic radius [10] was 3.14 ± 0.48 nm and the “apparent size of migrating species in size-exclusion column” value ([1]; in the presence of IP6 (300 μM)) was ~44 kDa. For the same molecule, the “∆H1” value ([2]; Table S1) was -19.87 ± 0.665 kJ/mol, the “∆H2” value ([2]; Table S1) was -21.33 ± 9.874 kJ/mol and the Kd ([2]; Table S1, 20 °C, read-out: Kd2) was 1.28 ± 0.366 µM. It also gave a Kd ([2]; two-site independent binding model, strong site, 20 °C, read-out: Kd1) of 0.152 ± 0.018 µM and a Kd ([2]; two-site independent binding model, weak site, 20 °C, read-out: Kd2) of 1.3 ± 0.4 µM.
